Data as given in patent US20260217701A1, “SELECTIVE BET INHIBITORS AND USES THEREOF” (Tay Therapeutics Limited, priority 2022, published 2026).
Values joined by “and” are separate entries in the source; they are usually repeats but may differ in a detail not shown here. Equal entries are not always repeated. Where two headings read alike, the source gives them in different places.

Assay: Rat PK study #4 (Compound A PO 0.2 and 1.0 mg/kg, propylene glycol formulation)
Type: in vivo, Lewis rats
Settings: propylene glycol-based formulation; for Plasma Concentration / concentration at 0.25 h / concentration at 0.5 h / concentration at 1 h / concentration at 2 h / concentration at 4 h / concentration at 6 h / concentration at 8 h / concentration at 24 h: Lewis rats; for MRT inf: read-out: MRTInf_obs
Description: For the fourth rat pharmacokinetic study, the pharmacokinetics of Compound A were assessed in male Lewis rats. Compound A was prepared in two different doses (0.2 mg/kg and 1.0 mg/kg) formulated in 20% propylene glycol/20% Vitamin E TPGS/60% water (see Table 1A for formulations). Animals were divided into two groups based on the compound formulation (n=3/group). The Compound A solutions were administered to animals orally (PO) and animals were then monitored over a 24 h period.
Blood samples (~0.2 mL) were collected according to a schedule (0.25, 0.5, 1, 2, 4, 6, 8, and 24 h following the initial dosing) by jugular vein by cannulation and EDTA-K2 was used as anticoagulant. Within 30 minutes of collection, the samples were centrifuged at approximately 4000 times g-force for 5 minutes at 4° C. to obtain blood plasma. The plasma samples were immediately divided into two aliquots (~75 μL each), transferred to a cryogenic vial, and stored in a freezer at −75±15° C. prior to analysis.
The concentration of Compound A in plasma samples was determined by liquid chromatography-mass spectrometry (LC-MS/MS) using a Shimadzu HPLC (DGU-20A5R; LC-30AD; SIL-30AC; Rack changer II; CTO-30A; and CBM-20A) and an AB API 5500+LC/MS/MS instrument. Samples were analyzed on an Agilent Poroshell 120 EC-C18 4 μm (50×2.1 mm) column. Solution A in the mobile phase was 95% water (0.1% formic acid) and solution B was 95% acetonitrile in water (0.1% formic acid), injection volume was 10 μL, and flow rate was 0.6 mL/min.
To prepare samples for analysis, serial concentrations were prepared by diluting the stock solution of analyte with a 50% acetonitrile in water solution. 5 μL working solutions (5, 10, 20, 50, 100, 500, 1000, 5000, and 10000 ng/ml) were added to 50 μL of the blank Lewis rat plasma to achieve calibration standards of ~0.5 to 1000 ng/ml (0.5, 1, 2, 5, 10, 50, 100, 500, and 1000 ng/ml) in a total volume of 55 μL. Five quality control samples at 1 ng/ml, 2 ng/ml, 5 ng/ml, 50 ng/ml, and 800 ng/ml for plasma were prepared independently of those used for the calibration curves. These QC samples were prepared on the day of analysis in the same way as calibration standards.
55 μL of standards, 55 μL of QC samples and 55 μL of unknown samples (50 μL of unknown rat plasma with 5 µL of blank solution) were added to 200 μL of acetonitrile containing IS mixture (verapamil) for precipitating protein respectively. The samples were then vortexed for 30 s. After centrifugation at 4° C., 3900 rpm for 15 min, the supernatant was diluted 3 times with water. 10 μL of diluted supernatant was injected into the LC/MS/MS system for quantitative analysis.

[1] = 0.2 mg/kg PO, individual animals
[2] = male, Lewis, rat, plasma, po, 0.2 mg/kg, 0.2 mg/kg PO, individual animals
[3] = male, Lewis, rat, plasma, po, 0.2 mg/kg, 0.2 mg/kg PO, mean
[4] = male, Lewis, rat, plasma, po, 1 mg/kg, 1 mg/kg PO, individual animals
[5] = male, Lewis, rat, plasma, po, 1 mg/kg, 1 mg/kg PO, mean

## Cn1cc(-c2ccccc2)c(-c2cn(C)c(=O)c3[nH]c(-c4cnn(C(F)(F)F)c4)cc23)cc1=O [Compound A, 6-methyl-4-(1-methyl-2-oxo-5-phenyl-1,2-dihydropyridin-4-yl)-2-(1-(trifluoromethyl)-1H-pyrazol-4-yl)-1,6-dihydro-7H-pyrrolo[2,3-c]pyridin-7-one]
[1]
  AUCInf: 82.0 ng·h/mL and 51.1 ng·h/mL and 103 ng·h/mL
  AUC_%Extrap_obs: 7.28% and 43.9% and 3.68%
  AUClast: 76.0 ng·h/mL and 28.7 ng·h/mL and 99.1 ng·h/mL
  AUClast/D: 380 (ng · h/mL)/(mg/kg) and 143 (ng · h/mL)/(mg/kg) and 496 (ng · h/mL)/(mg/kg)
  Cmax: 5.29 ng/mL and 8.20 ng/mL
  MRTInf_obs: 9.52 h and 7.69 h
  T1/2: 6.09 h and 4.94 h
0.2 mg/kg PO, mean
  AUC_%Extrap_obs: 18.3%
  AUClast/D: 340 (ng · h/mL)/(mg/kg)
1 mg/kg PO, individual animals
  AUCInf: 454 ng·h/mL and 217 ng·h/mL
  AUC_%Extrap_obs: 3.74% and 14.6%
  AUClast: 437 ng·h/mL and 185 ng·h/mL and 447 ng·h/mL
  AUClast/D: 437 (ng · h/mL)/(mg/kg) and 185 (ng · h/mL)/(mg/kg) and 447 (ng · h/mL)/(mg/kg)
  Cmax: 47.5 ng/mL and 23.3 ng/mL and 44.9 ng/mL
  MRTInf_obs: 11.4 h
  T1/2: 9.35 h
1 mg/kg PO, mean
  AUC_%Extrap_obs: 9.2%
  AUClast/D: 356 (ng · h/mL)/(mg/kg)
0.2 and 1 mg/kg PO
  clinical symptoms: no abnormal clinical symptoms observed
PO 1 mg/kg, 0.25 h, individual animals, 1 mg/kg
  Plasma Concentration: 6.05 ng/mL and 2.36 ng/mL and 5.82 ng/mL
PO 1 mg/kg, 0.5 h, individual animals, 1 mg/kg
  Plasma Concentration: 19.1 ng/mL
PO 1 mg/kg, 2 h, individual animals, 1 mg/kg
  Plasma Concentration: 47.5 ng/mL and 23.3 ng/mL and 44.9 ng/mL
PO 1 mg/kg, 4 h, individual animals, 1 mg/kg
  Plasma Concentration: 37.4 ng/mL and 15.0 ng/mL and 27.5 ng/mL
PO 1 mg/kg, 6 h, individual animals, 1 mg/kg
  Plasma Concentration: 25.4 ng/mL and 9.27 ng/mL and 16.5 ng/mL
PO 1 mg/kg, 8 h, individual animals, 1 mg/kg
  Plasma Concentration: 20.4 ng/mL and 7.30 ng/mL and 11.6 ng/mL
PO 1 mg/kg, 24 h, individual animals, 1 mg/kg
  Plasma Concentration: 2.29 ng/mL and 2.35 ng/mL and 19.1 ng/mL
[2]
  Tmax: 2 h
  half-life: 6.51 h
  MRT inf: 8.72 h
male, Lewis, rat, plasma, po, 0.2 mg/kg, 0.2 mg/kg PO, individual animals, read-out: Cmax
  Cmax: 7.99 ng/mL
[3]
  AUC(0-inf): 79 ng·h/mL
  AUC(0-t): 67.9 ng·h/mL
  Tmax: 2.67 h
  half-life: 5.85 h
  MRT inf: 8.65 h
male, Lewis, rat, plasma, po, 0.2 mg/kg, 0.2 mg/kg PO, mean, read-out: Cmax
  Cmax: 7.16 ng/mL
male, Lewis, rat, plasma, po, 0.2 mg/kg, PO 0.2 mg/kg, 0.25 h, mean of 3 animals
  concentration at 0.25 h: 0.34 ng/mL
male, Lewis, rat, plasma, po, 0.2 mg/kg, PO 0.2 mg/kg, 0.5 h, individual animals
  concentration at 0.5 h: 2.31 ng/mL
male, Lewis, rat, plasma, po, 0.2 mg/kg, PO 0.2 mg/kg, 0.5 h, mean of 3 animals
  concentration at 0.5 h: 1.77 ng/mL
male, Lewis, rat, plasma, po, 0.2 mg/kg, PO 0.2 mg/kg, individual animals
  concentration at 1 h: 5.24 ng/mL
male, Lewis, rat, plasma, po, 0.2 mg/kg, PO 0.2 mg/kg, mean of 3 animals
  concentration at 1 h: 4.51 ng/mL
male, Lewis, rat, plasma, po, 0.2 mg/kg, PO 0.2 mg/kg, 2 h, individual animals
  concentration at 2 h: 7.99 ng/mL
male, Lewis, rat, plasma, po, 0.2 mg/kg, PO 0.2 mg/kg, 2 h, mean of 3 animals
  concentration at 2 h: 7.09 ng/mL
male, Lewis, rat, plasma, po, 0.2 mg/kg, PO 0.2 mg/kg, 4 h, mean of 3 animals
  concentration at 4 h: 6.11 ng/mL
male, Lewis, rat, plasma, po, 0.2 mg/kg, PO 0.2 mg/kg, 6 h, individual animals
  concentration at 6 h: 4.13 ng/mL
male, Lewis, rat, plasma, po, 0.2 mg/kg, PO 0.2 mg/kg, 6 h, mean of 3 animals
  concentration at 6 h: 4.48 ng/mL
male, Lewis, rat, plasma, po, 0.2 mg/kg, PO 0.2 mg/kg, 8 h, mean of 3 animals
  concentration at 8 h: 3.96 ng/mL
male, Lewis, rat, plasma, po, 0.2 mg/kg, PO 0.2 mg/kg, 24 h, mean of 3 animals
  concentration at 24 h: 0.389 ng/mL
[4]
  Tmax: 2 h
  half-life: 5.14 h
  MRT inf: 7.1 h
[5]
  AUC(0-inf): 335 ng·h/mL
  AUC(0-t): 356 ng·h/mL
  Tmax: 2 h
  half-life: 7.24 h
  MRT inf: 9.3 h
male, Lewis, rat, plasma, po, 1 mg/kg, 1 mg/kg PO, mean, read-out: Cmax
  Cmax: 38.6 ng/mL
male, Lewis, rat, plasma, po, 1 mg/kg, PO 1 mg/kg, 0.25 h, mean of 3 animals
  concentration at 0.25 h: 4.74 ng/mL
male, Lewis, rat, plasma, po, 1 mg/kg, PO 1 mg/kg, 0.5 h, mean of 3 animals
  concentration at 0.5 h: 15.2 ng/mL
male, Lewis, rat, plasma, po, 1 mg/kg, PO 1 mg/kg, mean of 3 animals
  concentration at 1 h: 30.4 ng/mL
male, Lewis, rat, plasma, po, 1 mg/kg, PO 1 mg/kg, 2 h, mean of 3 animals
  concentration at 2 h: 38.6 ng/mL
male, Lewis, rat, plasma, po, 1 mg/kg, PO 1 mg/kg, 4 h, mean of 3 animals
  concentration at 4 h: 26.6 ng/mL
male, Lewis, rat, plasma, po, 1 mg/kg, PO 1 mg/kg, 6 h, mean of 3 animals
  concentration at 6 h: 17.1 ng/mL
male, Lewis, rat, plasma, po, 1 mg/kg, PO 1 mg/kg, 8 h, mean of 3 animals
  concentration at 8 h: 13.1 ng/mL
male, Lewis, rat, plasma, po, 1 mg/kg, PO 1 mg/kg, 24 h, mean of 3 animals
  concentration at 24 h: 7.9 ng/mL
